Experiment [1] has as its system serotonin receptor. The experiment in a line: serotonin receptor agonist activity in vivo: decrease in accumulation of 5-hydroxytryptophane in rat brain. On the procedure: The serotonin receptor agonist activity is determined in vivo by measuring the decrease in the accumulation of 5-hydroxytryptophane in the brain after administration of a test compound in the rat, as described in J. Med. Chem. 21, 864 (1978).

The target of experiment [2] is T1, serotonin receptor (Bos taurus, UniProt F1MGM3).
T1 construct: Caudate nuclei are dissected from freshly obtained calf brains; from tissue; host or cells: calf brain caudate nuclei membranes
T1 sequence (F1MGM3 1-403): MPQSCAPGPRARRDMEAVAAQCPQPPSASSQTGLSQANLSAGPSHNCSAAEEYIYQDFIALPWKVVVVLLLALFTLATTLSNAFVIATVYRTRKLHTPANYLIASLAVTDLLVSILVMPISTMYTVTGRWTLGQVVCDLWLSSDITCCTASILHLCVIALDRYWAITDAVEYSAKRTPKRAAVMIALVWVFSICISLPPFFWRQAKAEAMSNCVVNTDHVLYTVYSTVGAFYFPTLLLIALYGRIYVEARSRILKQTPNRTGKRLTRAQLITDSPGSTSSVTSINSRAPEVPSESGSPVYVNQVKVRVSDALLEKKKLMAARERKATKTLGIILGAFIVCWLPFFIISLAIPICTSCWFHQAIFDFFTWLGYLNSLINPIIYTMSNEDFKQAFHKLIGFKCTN
In words: 3H-serotonin binding assay in vitro, calf brain (caudate nuclei) membranes. The following applies: 7 nM 3H-serotonin, 10 minutes at 37° C. On the procedure: The serotonin binding properties indicative of serotonin agonistic receptor regulating activity of compounds of the invention are determined in the in vitro binding assay as follows:
Membrane suspensions are prepared from calf brain and incubated with ^3 H-serotonin by a modification of the procedure described by Bennett and Snyder. Caudate nuclei are dissected from freshly obtained calf brains; they are frozen and stored at -70° C. for up to 3 months. For each binding experiment, a portion of tissue is homogenized with a Brinkmann Polytron in 50 volumes (w/v) of ice-cold 50 mM Tris-HCl (pH 7.7 at 25° C.) containing 10 mM dithiothreitol. The homogenate is centrifuged twice at 50,000×g for 10 minutes with rehomogenization of the pellet in fresh buffer between spins. The final pellet is homogenized in 100 volumes (based on original tissue weight) cold 50 mM Tris-HCl (pH 7.6 at 25° C.) containing […] pargyline, 0.1% ascorbic acid, 120 mM NaCl, 5 mM KCl, 2 mM CaCl2, 1 mM MgCl2 and 10 mM dithiothreitol. The suspension is warmed in a 37° C. bath for 10 minutes and then returned to ice.
In the binding assay, 2-ml aliquots of the final tissue suspension (equivalent to 20 mg of original wet tissue) are added to tubes (on ice) containing ^3 H-serotonin with or without test compound freshly dissolved in 0.1% ascorbic acid. The final concentration of ^3 H-serotonin is 7 nM. Test compounds are present over a wide range of concentrations, with triplicate tubes for each concentration. Tubes are incubated at 37° C. for 10 minutes and the suspensions are immediately filtered under vacuum through Whatman GF/B glass fiber filters. The filters are washed with 10 ml of cold Tris-HCl (pH 7.7 at 25° C.), placed in scintillation vials with 12 ml of scintillation solution, disrupted by vigorous mechanical shaking for 90 minutes and counted for radioactivity. The IC50 values (concentrations of test compounds required to inhibit the specific binding of 7 nM ^3 H-serotonin by 50%) are determined graphically.

For experiment [3], the target named is presynaptic dopamine receptor. In words: dopamine binding assay in vitro: displacement of 3H-ADTN from calf-caudate nucleus membranes. Further details: species or system calf (bovine). To be noted: 0.2 nM 3H-ADTN, 60 minutes at 25° C. Here is the method:
The presynaptic dopamine receptor binding properties indicative of the presynaptic dopamine receptor regulatory, e.g. agonistic activity, of the compounds of the invention are determined in the dopamine binding assay in vitro by the following method involving the displacement of the dopamine agonist 2-amino-6,7-dihydroxy-1,2,3,4-tetrahydronaphthalene (^3 H-ADTN) from membranes from calf-caudate nucleus. [Eur. J. Pharmacol. 55, 137 (1979)].
Bovine brain tissue is homogenized in 50 volumes (based on original tissue weight) of 50 mM Tris-HCl buffer, pH 7.7 at 25° C., using a Brinkman Polytron, setting 6 for 20 seconds. The homogenate is centrifuged at 50,000×g for 10 minutes. The pellet is resuspended in 50 volumes of 50 mM Tris-HCl buffer, pH 7.7 and recentrifuged. The final pellet is resuspended in 200 volumes of incubation media containing: 50 mM Tris-HCl buffer, pH 7.7; 0.1% ascorbic acid; 0.001 mM pargyline; 120 mM NaCl; 5 mM KCl, 2 mM CaCl2 and 1 mM MgCl2.
In the binding assay, triplicate 2 ml samples (equivalent to 5 mg/ml original tissue) of the membrane suspension are incubated for 60 minutes at 25° C. with 0.2 nM ^3 H-ADTN without or in the presence of various concentrations of test compound in solvent. The reaction is terminated by filtering with 5 ml of cold 50 mM Tris-HCl buffer pH 7.7. The filters are placed in scintillation vials with 5 ml of scintillation solution, disrupted by vigorous mechanical shaking for 90 minutes, and counted for radioactivity.
The IC50 values represent the concentration of test compounds required to inhibit the specific binding of 0.2 nM ^3 H-ADTN by 50%, and are determined graphically.

Experiment [4] relates to reserpine-induced hypomotility in the rat. The experiment in a line: reversal of reserpine-induced hypomotility in the rat. Type of experiment: in vivo. The following applies: ip. From the text:
In vivo such selectivity can be determined by measurement of the degree of reversal of reserpine induced hypomotility in the rat. The relative absence of such reversal at effective doses (e.g. in the GBL model) is indicative of selective presynaptic dopamine agonist activity.

Experiment [5] concerns dopamine autoreceptor. The experiment in a line: rat gamma-butyrolactone (GBL) model, inhibition of GBL-induced DOPA accumulation (presynaptic dopamine agonist activity). Type of experiment: in vivo. Here is the method: Indicative of potential neuroleptic activity of the compounds of the invention, the in-vivo presynaptic dopamine agonist activity (also called dopamine autoreceptor agonist activity) is determined in the rat gamma-butyrolactone (GBL) model by a modification of the procedure described by Walters and Roth, Naunyn Schmiedeberg's Arch. Pharmacol. 296, 5 (1976). In this model, a presynaptic dopamine agonist inhibits the GBL-induced accumulation of the dopamine precursor DOPA after pretreatment with 3-hydroxybenzylhydrazine (NSD-1015), a DOPA decarboxylase inhibitor.
Test compounds are dissolved in 0.9% saline, with sodium metabisulfite to prevent oxidation, if required. […] Dihydroxyphenylalanine (DOPA) is analyzed by High Pressure Liquid Chromatography/Electrochemistry (HPLC/EC) techniques using a Bio-analytical Systems (BAS) Model LC-150 series Liquid Chromatograph. […] Compounds are detected with an electro-chemical detector having an oxidizing potential of 0.7 volts and sensitivity setting of 20 nAmps/V. Tissue concentrations and recoveries are calculated by using the internal standard dihydroxybenzylamine (DHBA). […] Data is statistically analysed by one-way Analysis of Variance with Duncan's Multiple Comparison Test. The activity of the test compounds is determined as the percent inhibition of DOPA accumulation at a given dose. […]

Counter-ions that a name gives are not always drawn.

Turning to `Cc1ccc2c(c1O)OC[C@@H]1[C@@H]2CCCN1C.Cl` (relative stereo) [trans-7-hydroxy-4,8-dimethyl-1,2,3,4a,5,10b-hexahydro-4H-[1]-benzopyrano[3,4-b]pyridine hydrochloride], in experiment [1] (dose of 0.1 mg/Kg, compared with about 25% decrease of the 8-bromo-7-methoxy-4-methyl compound), the “decrease of accumulation of 5-hydroxytryptophane in the frontoparietal cortex of rat brain (in words)” value was “similarly effective”.

Take `COc1cccc2c1OC[C@@H]1[C@@H]2CCCN1C` (relative stereo) [trans-7-methoxy-4-methyl-1,2,3,4a,5,10b-hexahydro-4H-[1]-benzopyrano[3,4-b]pyridine hydrochloride]: the IC50 in experiment [2] is about 80 nM.

With `CCCN1CCC[C@@H]2c3cccc(O)c3OC[C@H]21` (relative stereo) [trans-7-hydroxy-4-propyl-1,2,3,4a,5,10b-hexahydro-4H-[1]-benzopyrano[3,4-b]pyridine hydrochloride], the IC50 in experiment [3] was about 60 nM.

The compound `CCCCN1CCC[C@@H]2c3cccc(O)c3OC[C@H]21` (relative stereo) [trans-4-butyl-7-hydroxy-1,2,3,4a,5,10b-hexahydro-4H-[1]-benzopyran-[3,4-b]pyridine hydrochloride] came in with a concentration for half-maximal inhibition (IC50) in experiment [3] of about 20 nM.

In turn, `CN1CCC[C@@H]2c3c(O)cccc3OC[C@H]21` (relative stereo) [trans-10-hydroxy-4-methyl-1,2,3,4a,5,10b-hexahydro-4H-[1]-benzopyrano[3,4-b]pyridine hydrochloride] showed an IC50 in experiment [2] of about 400 nM.

Take `CCCN1CCC[C@@H]2c3cc(O)ccc3OC[C@H]21.Cl` (relative stereo) [trans-9-hydroxy-4-propyl-1,2,3,4a,5,10b-hexahydro-4H-[1]-benzopyrano[3,4-b]pyridine hydrochloride]: the ED50 was about 10 mg/kg in experiment [4] and about 0.16 mg/kg in experiment [5] (ip, read-out: ED50 in the GBL model (dose at which DOPA accumulation is inhibited by 50%)). Also, the “activity in the GBL model orally” value in experiment [5] (oral, dose of about 0.5 mg/kg) is reported as “active”. Also, in experiment [3], the IC50 is about 30 nM.

`CCCN1CCC=C2c3cc(O)ccc3SCC21` (stereo not shown) [9-hydroxy-4-propyl-2,3,4a,5-tetrahydro-4H-[1]-benzothiopyrano[3,4-b]pyridine hydrochloride] yielded an IC50 in experiment [3] of about 10 nM.

Take `COc1c(Br)ccc2c1OC[C@@H]1[C@@H]2CCCN1C.Cl` (relative stereo) [trans-8-bromo-7-methoxy-4-methyl-1,2,3,4a,5,10b-hexahydro-4H-[1]-benzopyrano[3,4-b]pyridine hydrochloride]: the “decrease of accumulation of 5-hydroxytryptophane in the frontoparietal cortex of rat brain” value in experiment [1] (2.5 mg/kg s.c.) is on record as “about 25%”. In experiment [2], this compound displayed an IC50 of about 20 nM.

For the compound `CCCN1CCC[C@@H]2c3c(OC)cccc3OC[C@H]21` (relative stereo) [trans-10-methoxy-4-propyl-1,2,3,4a,5,10b-hexahydro-4H-[1]-benzopyrano[3,4-b]pyridine hydrochloride], the IC50 in experiment [2] was about 20 nM.

What is called IC50 is the concentration that inhibits the measured activity by half. A low value points to inhibition by little substance. By ED50 is commonly meant the dose that gives a 50% effect, or the effect in half of the subjects.

The values are drawn from patent US4604397A, “Certain benzo-(pyrano and thiopyrano)-pyridines, useful as CNS agents” (Ciba-Geigy Corporation, priority 1985, dated 1986).
